# From US7008911B2, “Non-surfactant solubilizing agent” (Ecolab, Inc., priority 2002, dated 2006)
# How the values were obtained:
# Assay type in all cases: physicochemical
# [1] = Alcohol amine added to aqueous EPh solution until single phase observed; details: for amount added until a single phase solution was observed: 100 grams total, room temperature
# [2] = Alcohol amine added to aqueous PPh solution until single phase observed; details: aqueous PPh (34-37 wt % PPh, 39-42 wt % water), room temperature, Formulations B-E
# [3] = Alcohol amine added to aqueous benzyl alcohol solution until single phase observed; details: aqueous benzyl alcohol (37 wt %, water 42 wt %), room temperature, Formulation F
# [4] = listed as of Table 4 with 1 % Eph in H2O, Eph 1 wt % normalized
# [5] = listed as of Table 4 with 2.5 % Eph in H2O, Eph 2 wt % normalized
# [6] = listed as of Table 4 with 5 % Eph in H2O, Eph 4 wt % normalized
# [7] = listed as of Table 4 with 10 % Eph in H2O, Eph 7-8 wt % normalized
# [8] = listed as of Table 4 with 15 % Eph in H2O, Eph 10-12 wt % normalized
# [9] = listed as of Table 4 with 20 % Eph in H2O, Eph 14-15 wt % normalized
# [10] = listed as of Table 4 with 30 % Eph in H2O, Eph 21-23 wt % normalized
# [11] = listed as of Table 4 with 50 % Eph in H2O, Eph 36-40 wt % normalized
# [12] = listed as of Table 4 with 75 % Eph in H2O, Eph 58-64 wt % normalized
amount added until a single phase solution was observed ([1]; 1 % Eph in H2O) [Grams],amount added until a single phase solution was observed ([1]; 2.5 % Eph in H2O) [Grams],amount added until a single phase solution was observed ([1]; 5 % Eph in H2O) [Grams],amount added until a single phase solution was observed ([1]; 10 % Eph in H2O) [Grams],amount added until a single phase solution was observed ([1]; 15 % Eph in H2O) [Grams],amount added until a single phase solution was observed ([1]; 20 % Eph in H2O) [Grams],amount added until a single phase solution was observed ([1]; 30 % Eph in H2O) [Grams],amount added until a single phase solution was observed ([1]; 50 % Eph in H2O) [Grams],amount added until a single phase solution was observed ([1]; 75 % Eph in H2O) [Grams],"alcohol amine at single phase, normalized to 100 weight % of water, alcohol amine and EPh [1, 4] [wt %]","alcohol amine at single phase, normalized to 100 weight % of water, alcohol amine and EPh [1, 5] [wt %]","alcohol amine at single phase, normalized to 100 weight % of water, alcohol amine and EPh [1, 6] [wt %]","alcohol amine at single phase, normalized to 100 weight % of water, alcohol amine and EPh [1, 7] [wt %]","alcohol amine at single phase, normalized to 100 weight % of water, alcohol amine and EPh [1, 8] [wt %]","alcohol amine at single phase, normalized to 100 weight % of water, alcohol amine and EPh [1, 9] [wt %]","alcohol amine at single phase, normalized to 100 weight % of water, alcohol amine and EPh [1, 10] [wt %]","alcohol amine at single phase, normalized to 100 weight % of water, alcohol amine and EPh [1, 11] [wt %]","alcohol amine at single phase, normalized to 100 weight % of water, alcohol amine and EPh [1, 12] [wt %]","alcohol amine at single phase, normalized on total weight % [2] [wt %]","alcohol amine at single phase, normalized on total weight % [3] [wt %]",SMILES
2.3,12.7,26.9,40.5,45.4,44,40,34,26.1,2,11,21,29,32,30,29,26,20,25,–,"NCCO [MEA, monoethanolamine]"
3.5,16,26.8,32.2,33.5,32.9,31.1,26,17.5,3,14,21,24,25,25,24,20,15,21,21,"CC(O)CN (stereo not shown) [MIPA, monoisopropanolamine]"
4.8,12.3,21.5,26.8,28.7,29.2,29,26.7,17.8,5,11,18,21,22,23,23,22,15,21,–,"CC(C)(N)CO [AMP, 2-amino-2-methyl-1-propanol]"
